In patent publication WO2020169698A1, “Sensitization of cancer cells to tnf by bet inhibition” (dated 2020):

Tests used:
HCT116-NLV cells = assay: Epigenetic small molecule screen, coculture with CMV-specific T cells, 48 h; type: cell-based, human; details: Ag+ coculture, 2.5uM or 5uM
HCT116-EBV cells = assay: Epigenetic small molecule screen, negative control coculture with CMV-specific T cells, 48 h; details: Ag- (EBV peptide) coculture, 2.5uM or 5uM
HCT116 cells [1] = assay: CellTiterGlo viability with BET inhibitor + TNF, 72 h; type: cell-based; details: in combination with 15ng/ml TNF vs BET inhibitor single agent, significance for the highest concentration of compound
MKN45 cells [2] = assay: as above; type: cell-based; details: in combination with 15ng/ml TNF vs BET inhibitor single agent, significance for the highest concentration of compound
[3] = system: MC38-huCEA expressing sc tumors; assay: In vivo antitumor efficacy against MC38-huCEA sc tumors; design: species or system mice; details: single agent; JQ1 50mg/kg ip once daily (14x) or CEA-TCB 2.5mg/kg iv twice weekly (4x); last day of study
MC38 cells [4] = assay: Viability of p-gp 1 expressing MC38 cells with BET inhibitor + TNF +/- Zosuquidar, 72 h; type: cell-based, murine; details: for change in sensitivity by p-gp 1 block with Zosuquidar: 0.5mM (so in the source) Zosuquidar, TNF 15ng/mL, 72 hours, some concentrations tested
Caspase 8 = Caspase 8 Glo activity, 8 h; type: cell-based; details: for Caspase 8 activity: RG6146 + 15ng/mL TNF vs RG6146 single agent, 8h
AU565 cells = assay: Synergy of RG6146 and recombinant TNF (PI positivity, ZIP model); type: cell-based, human; details: RG6146 + recombinant TNF, 18 hours
HCT116-GFP cells = assay: CEA-TCB bystander effect on CEA negative cell growth, Incucyte S3; type: cell-based; details: RG6146 combined with CEA-TCB (20nM) vs RG6146 single agent, one week
MKN45 cells [5] = assay: Cleaved PARP Western blot with CEA-TCB conditioned media + RG6146; type: cell-based; details: RG6146 (1 and 2.5 mM as printed) + CEA-TCB conditioned media, 24h; not seen in absence of CEA-TCB
HCT116 cells [6] = assay: Cleaved PARP Western blot with CEA-TCB 2 conditioned media + RG6146; type: cell-based; details: RG6146 (2.5 and 7 mM as printed) + CEA-TCB 2 conditioned media; not seen in absence of CEA-TCB 2
MC38 cells [7] = assay: Synergy of RG6146 and recombinant TNF (PI positivity, ZIP model); type: cell-based, murine; details: RG6146 + recombinant TNF, 18 hours
HCT116 cells [8] = assay: CEA-TCB bystander killing of CEA negative cells, flow cytometry, 72 h; type: cell-based; details: RG6146 15uM to 0.002uM with CEA-TCB activated T cells
Caspase 3,7 = Caspase 3,7 Glo activity, 8 h; type: cell-based; details: for Caspase 3,7 activity: RG6146 + 15ng/mL TNF vs RG6146 single agent, 8h
HCT116 cells [9] = assay: Growth with Caspase 8 knock down, Incucyte S3; type: cell-based; details: 2.5mM (so in the source) RG6146 + 15ng/ml TNF, 7 days
HCT116 cells [10] = assay: CEA-TCB 2 bystander killing of CEA negative cells, flow cytometry, 72 h; type: cell-based; details: RG6146 15uM to 0.002uM with CEA-TCB 2 activated CTLs
MKN45 cells [11] = assay: Viability with CEA-TCB/PBMC conditioned media + RG6146, 72 h; type: cell-based
MKN45 cells [12] = assay: Cleaved PARP Western blot with CEA-TCB 2 conditioned media + RG6146; type: cell-based; details: RG6146 (2.5 and 7 mM as printed) + CEA-TCB 2 conditioned media; not seen in absence of CEA-TCB 2
MC38-Ova cells = assay: OT1 T cell co-culture cytotoxicity (PI positivity), 18 h; type: cell-based, murine; design: dose or concentration left out as unconfirmed; details: RG6146 with OT1 T cells
[13] = system: MLL-AF9-driven acute myeloid leukemia cells; assay: OT1 T cell cytotoxicity towards MLL-AF9 AML cells (PI positivity), 16 h; type: cell-based, murine; details: 2.5uM RG6146, 16 hours
MC38 cells [14] = assay: Cell death of MC38 cells overexpressing Bcl-2 or cFLIP (PI positivity), 18 h; type: cell-based, murine; design: dose or concentration left out as unconfirmed; details: cFLIP overexpression, RG6146 (so in the source) and TNF
[15] = system: CEA on tumor cells and CD3e on T cells; details: mouse models; cited from earlier work
HCT116 cells [16] = details: CEA-TCB; "as has been shown for HCT116 cells that express no CEA"; cited from earlier work
HCT116 cells [17] = assay: Viability with CEA-TCB/PBMC conditioned media + RG6146, 72 h; type: cell-based; details: 20nM CEA-TCB conditioned media + RG6146 30uM to 0.0005uM
[18] = HCT116 and MKN45 cells, inhibitor with RG6146 + TNF (significance not shown)

CCNC(=O)c1cc2c(-c3cc(C(C)(C)O)ccc3Oc3c(C)cc(F)cc3C)cn(C)c(=O)c2[nH]1 [ABBV744]
viability (HCT116-NLV cells): significantly decrease viability

Nc1ccccc1NC(=O)c1ccc(CNC(=O)OCc2cccnc2)cc1 [Entinostat]
viability in negative control coculture (toxicity) (HCT116-EBV cells): decreased viability also in the negative control

Cc1sc2c(c1C)C(c1ccc(Cl)cc1)=N[C@@H](CC(=O)OC(C)(C)C)c1nnc(C)n1-2 [JQ1]
viability (HCT116 cells [1]): significantly decrease viability | viability (MKN45 cells [2]): significantly decrease viability | decreased tumor growth [3]: 50% | viability (HCT116-NLV cells): significantly decrease viability | change in sensitivity by p-gp 1 block with Zosuquidar (MC38 cells [4]): no change

CCS(=O)(=O)Nc1ccc(Oc2ccc(F)cc2F)c(-c2cn(C)c(=O)c3[nH]ccc23)c1 [Mivebresib]
viability (HCT116-NLV cells): significantly decrease viability

Cc1sc2c(c1C)C(c1ccc(Cl)cc1)=N[C@@H](CC(=O)Nc1ccc(O)cc1)c1nnc(C)n1-2 [OTX015]
viability (HCT116 cells [1]): significantly decrease viability | viability (MKN45 cells [2]): significantly decrease viability | viability (HCT116-NLV cells): significantly decrease viability

Cc1[nH]c2ccccc2c1CCNCc1ccc(/C=C/C(=O)NO)cc1 [Panobinostat]
viability in negative control coculture (toxicity) (HCT116-EBV cells): decreased viability also in the negative control

Cc1sc2c(c1C)C(c1ccc(Cl)cc1)=N[C@@H](CC(=O)NCCCN1CCN(C)CC1)c1nnc(C)n1-2 [RG6146, 2-[(S)-4-(4-chloro-phenyl)-2,3,9-trimethyl-6H-l-thia-5,7,8,9a-tetraaza-cyclopenta[e]azulen-6-yl]-N-[3-(4-methyl-piperazin-l-yl)-propyl]-acetamide]
Caspase 8 activity (Caspase 8; HCT116 cells): induces Caspase3,7 and 8 activity in HCT-116 and MKN45 cells significantly | Caspase 8 activity (Caspase 8; MKN45 cells): induces Caspase3,7 and 8 activity in HCT-116 and MKN45 cells significantly | viability (HCT116 cells [1]): significantly decrease viability | viability (MKN45 cells [2]): significantly decrease viability | induction of cell death, synergy with TNF (AU565 cells): synergstic | cell growth of CEA negative cells (HCT116-GFP cells): significantly decrease cell growth | cell death (cleaved PARP) (MKN45 cells [5]): able to induce cell death | cell death (cleaved PARP) (HCT116 cells [6]): able to induce cell death | induction of cell death, synergy with TNF (MC38 cells [7]): synergstic | cell killing in CEA negative cells (HCT116 cells [8]): able to increase cell killing | Caspase 3,7 activity (Caspase 3,7; HCT116 cells): induces Caspase3,7 and 8 activity in HCT-116 and MKN45 cells significantly | Caspase 3,7 activity (Caspase 3,7; MKN45 cells): induces Caspase3,7 and 8 activity in HCT-116 and MKN45 cells significantly | cell growth rescue (HCT116 cells [9]; Caspase 8 knockdown): rescued cell growth under these treatment conditions partially | cell growth (HCT116 cells [9]; scr treated cells): completely blocked HCT116 cell growth | cell killing in CEA negative cells (HCT116 cells [10]): able to increase cell killing | viability (MKN45 cells [11]; RG6146 with CEA-TCB supernatant): decrease in viability | cell death (cleaved PARP) (MKN45 cells [12]): able to induce cell death | viability (HCT116-NLV cells): significantly decrease viability | cell death (PI positivity) (MC38-Ova cells): increased cell death | cytotoxic activity of OT1 T cells ([13]; perforin expressing (wild-type) OT1 T cells): augments the cytotoxic activity | cytotoxic activity of OT1 T cells ([13]; perforin-deficient OT1 T cells): augments the cytotoxic activity | change in sensitivity by p-gp 1 block with Zosuquidar (MC38 cells [4]): sensitized | sensitivity of p-gp 1 expressing MC38 cells (MC38 cells [4]; compared to JQ1): less sensitive | cytotoxic effects of TNF+RG6146 (MC38 cells [14]): abrogate the cytotoxic effects

O=C(CCCCCCC(=O)Nc1ccccc1)NO [Vorinostat]
viability in negative control coculture (toxicity) (HCT116-EBV cells): decreased viability also in the negative control

COc1cc2c(cc1-c1c(C)noc1C)ncc1[nH]c(=O)n([C@H](C)c3ccccn3)c12 [ΪBET151]
viability (HCT116 cells [1]): significantly decrease viability | viability (MKN45 cells [2]): significantly decrease viability | viability (HCT116-NLV cells): significantly decrease viability

Z-IETD-FMK: Caspase 8 inhibitor Z-IETD-FMK (R&D Systems #FMK007) (not fully specified)
block of Caspase 8 activation (Caspase 8; [18]): blocked Caspase 8 and downstream Caspase 3,7 activation completely | block of downstream Caspase 3,7 activation (Caspase 3,7; [18]): blocked Caspase 8 and downstream Caspase 3,7 activation completely

B1: CEA-TCB: T cell activating bispecific antibody targeting CEA on tumor cells and CD3e on T cells (antibody, chains of the INN, looked up, V domains shown)
VH: QVQLVQSGAEVKKPGASVKVSCKASGYTFTEFGMNWVRQAPGQGLEWMGWINTKTGEATYVEEFKGRVTFTTDTSTSTAYMELRSLRSDDTAVYYCARWDFAYYVEAMDYWGQGTTVTVSS
VL: DIQMTQSPSSLSASVGDRVTITCKASAAVGTYVAWYQQKPGKAPKLLIYSASYRKRGVPSRFSGSGSGTDFTLTISSLQPEDFATYYCHQYYTYPLFTFGQGTKLEIK
VH2: B1 VH
VL2: QAVVTQEPSLTVSPGGTVTLTCGSSTGAVTTSNYANWVQEKPGQAFRGLIGGTNKRAPGTPARFSGSLLGGKAALTLSGAQPEDEAEYYCALWYSNLWVFGGGTKLTVL
PD-L1/PD-1 pathway [15]: up-regulates | anti-tumor activity [15]: potent anti-tumor activity | intratumoral T cell infiltration [15]: increased intratumoral T cell infiltration | release of pro-inflammatory cytokines such as IFNy, TNF and Granzyme B [15]: increased release of pro-inflammatory cytokines | CTL killing of cells with low or no CEA (HCT116 cells [16]): not able to induce CTL killing | combination of cytokines released by CEA-TCB activated T cells with BET inhibition (MKN45 cells [11]; 20nM CEA-TCB conditioned media + RG6146 30uM to 0.0005uM): synergistically combine with BET inhibition | decreased tumor growth [3]: 60% | combination of cytokines released by CEA-TCB activated T cells with BET inhibition (HCT116 cells [17]): synergistically combine with BET inhibition
